Assay [1] addresses T1, GluN1/GluN2A-L611Q (Homo sapiens, UniProt Q05586+Q12879, L611Q). The assay can be described thus: TEVC current recordings from Xenopus oocytes, channel blocker inhibition. The class given is cell-based. As to conditions: for % inhibition: 2A-L611Q, 100 μM blocker, −40 mV.
In assay [2] the target is GluN1/GluN2B-V620M (Homo sapiens, UniProt Q05586+Q13224, V620M). As to the kind of experiment: Current-voltage curves. As to conditions: 2B-V620M.
Assay [3] addresses GluN2B-N616K-containing NMDARs (Homo sapiens, UniProt Q05586+Q13224, N616K). The assay can be described thus: TEVC current recordings from Xenopus oocytes, channel blocker inhibition. The class given is cell-based. As to conditions: 2B-N616K, 100 μM blocker, −40 mV.
The target of assay [4] is T2, WT GluN1/GluN2A (Homo sapiens, UniProt Q05586+Q12879). Described as above. The class given is cell-based. As to conditions: WT GluN1/WT 2A, 100 μM blocker, −40 mV.
Assay [5] deals with GluN2B-W607C-containing NMDARs (Homo sapiens, UniProt Q05586+Q13224, W607C). The description is as above. As to conditions: 2B-W607C, 100 μM blocker, −40 mV. The class given is cell-based.
The target of assay [6] is GluN2B-V620M-containing NMDARs (Homo sapiens, UniProt Q05586+Q13224, V620M). The assay is described as above. The class given is cell-based. As to conditions: 2B-V620M, 100 μM blocker, −40 mV.
For assay [7], the target named is GluN2B-G611V-containing NMDARs (Homo sapiens, UniProt Q05586+Q13224, G611V). The description is as above. The class given is cell-based. As to conditions: 2B-G611V, 100 μM blocker, −40 mV.
The target in assay [8] is GluN1/GluN2B-N615K (Homo sapiens, UniProt Q05586+Q13224, N615K). The description is as above. The class given is cell-based. As to conditions: 2B-N615K, 100 μM blocker, −40 mV.
Assay [9] concerns the target GluN1-G620R/GluN2A (Homo sapiens, UniProt Q05586+Q12879, G620R). Described as above. The class given is cell-based. As to conditions: for % inhibition: 1-G620R/2A, 100 μM blocker, −40 mV.
The target of assay [10] is GluN2A-N615K-containing NMDARs (Homo sapiens, UniProt Q05586+Q12879, N615K). Described as above. As to conditions: 2A-N615K, 100 μM blocker, −40 mV. The class given is cell-based.
Assay [11] concerns the target GluN1/GluN2B-N615I (Homo sapiens, UniProt Q05586+Q13224, N615I). Described as above. The class given is cell-based. As to conditions: for % inhibition: 2B-N615I, 100 μM blocker, −40 mV.
Assay [12] addresses GluN2B-V618G-containing NMDARs (Homo sapiens, UniProt Q05586+Q13224, V618G). The description is as above. The class given is cell-based. As to conditions: 2B-V618G, 100 μM blocker, −40 mV.
For assay [13], the target named is T3, WT GluN1/GluN2B (Homo sapiens, UniProt Q05586+Q13224). The description is as above. As to conditions: WT GluN1/WT 2B, 100 μM blocker, −40 mV. The class given is cell-based.
For assay [14], the target named is GluN2A-N614S-containing NMDARs (Homo sapiens, UniProt Q05586+Q12879, N614S). The description is as above. The class given is cell-based. As to conditions: for % inhibition: 2A-N614S, 100 μM blocker, −40 mV.
For assay [15], the target named is T3, WT GluN1/GluN2B. The assay can be described thus: Current-voltage curves. As to conditions: WT 2B, 1 mM Mg^2+ alone.
The target of assay [16] is T2, WT GluN1/GluN2A. The assay can be described thus: Current-voltage curves. As to conditions: WT 2A, 1 mM Mg^2+ alone.
The target of assay [17] is T1, GluN1/GluN2A-L611Q. As to the kind of experiment: Current-voltage curves. As to conditions: 2A-L611Q, 1 mM Mg^2+ alone.

Consider `CC12CC3CC(C)(C1)CC(N)(C3)C2` [memantine], for which the “% inhibition” value in assay [1] (w/ 1 mM Mg^2+) is 94 ± 0.6% (9); in [1] (w/o Mg^2+), 87 ± 2.1% (12); in assay [3] (w/ 1 mM Mg^2+), 88 ± 1.6% (24)^¥; in [3] (w/o Mg^2+) it was 93 ± 1.8% (7); in [4] (w/ 1 mM Mg^2+), 89 ± 1.3% (30); in assay [4] (w/o Mg^2+) it was 94 ± 1.2% (15). Also, the “% inhibition” value in [5] (w/ 1 mM Mg^2+) is on record as 92 ± 2.8% (11); in assay [5] (w/o Mg^2+), 91 ± 2.0% (10); in assay [6] (w/ 1 mM Mg^2+), 95 ± 0.7% (7); in assay [6] (w/o Mg^2+) it was 96 ± 0.7% (8); in assay [7] (w/ 1 mM Mg^2+), 97 ± 1.2% (14); in [7] (w/o Mg^2+), 95 ± 1.4% (10). For the same compound, the “% inhibition” value in [8] (w/ 1 mM Mg^2+) is 12 ± 1.9% (21) ^*^¥; in [8] (w/o Mg^2+), 22 ± 2.5% (14)^¥; in assay [9] (w/ 1 mM Mg^2+), 98 ± 0.4 (8) %; in assay [9] (w/o Mg^2+) it was 96 ± 1.3% (8); in assay [10] (w/ 1 mM Mg^2+) it was 81 ± 1.6% (8) ^*^¥; in assay [10] (w/o Mg^2+) it was 90 ± 2.5% (7). The “% inhibition” value in assay [11] (w/ 1 mM Mg^2+) is reported as 98 ± 0.7% (13); in [11] (w/o Mg^2+) it was 96 ± 1.1% (11); in assay [12] (w/ 1 mM Mg^2+) it was 87 ± 2.1% (14)^¥; in assay [12] (w/o Mg^2+), 85 ± 1.5% (16)^¥; in [13] (w/ 1 mM Mg^2+), 93 ± 0.8% (26); in assay [13] (w/o Mg^2+), 97 ± 1.1% (18). Moreover, the “% inhibition” value in assay [14] (w/ 1 mM Mg^2+) is on record as 25 ± 6.1% (10) ^*^¥; in assay [14] (w/o Mg^2+), 60 ± 4.1% (9)^¥. In addition, the “increased potency in 1 mM Mg^2+ compared to the same variant in the absence of Mg^2+” value in assay [1] (GluN2A-L611Q) came out at 3.1 fold; in assay [9] (GluN1-G620R), 2.4 fold. In addition, the “enhanced potency compared to the WT receptors” value stood at 3.7 fold in assay [1] (GluN2A-L611Q, presence of 1 mM Mg^2+); 17 fold in assay [9] (GluN1-G620R, presence of 1 mM Mg^2+); 7.2 fold in [11] (GluN2B-N615I, presence of 1 mM Mg^2+). Moreover, the “z δ (apparent, combined block)” value is given as 1.54 in assay [2] (1 mM Mg^2+ + 0.3 μM memantine), 1.52 in assay [2] (1 mM Mg^2+ + 1.0 μM memantine), 1.38 in [2] (1 mM Mg^2+ + 3.0 μM memantine) and 1.28 in assay [2] (1 mM Mg^2+ + 10 μM memantine). The “enhanced potency in comparison to WT NMDARs” value in [9] (GluN1-G620R, absence of Mg^2+) stood at 2.7 fold; in [11] (GluN2B-N615I, absence of Mg^2+) it was 4.3 fold. For the same compound, in assay [14] (GluN2A-N614S, presence of 1 mM Mg^2+), the “reduced sensitivity compared to the WT receptors” value stood at 9 fold.

As to `[Mg+2]` [Mg^2+], the “z δ” value in assay [2] (1 mM Mg^2+ alone) turned out to be 1.47; in [15], 1.96; in assay [16], 1.97; in [17], 1.21. Moreover, the Kd in assay [2] (read-out: KD, 0 mV, 1 mM Mg^2+ alone) turned out to be 3930 µM; in [15] (read-out: KD, 0 mV) it was 1830 µM; in [16] (read-out: KD, 0 mV), 1520 µM; in [17] (read-out: KD, 0 mV), 13000 µM.

One may read the Kd as the constant that tells how readily two partners part at equilibrium.

The values above are taken from paper PMC10902181 (Journal of neurochemistry, 2023).
